Reference: ChEMBL document CHEMBL5113515, “The Discovery of GSK3640254, a Next-Generation Inhibitor of HIV-1 Maturation” (J Med Chem, 2022)
pEC50, pIC50, pKd: −log10 of the molar value.

Assays:
[1] = Metabolic stability in rat liver microsomes assessed as half life in presence of NADPH at 0.5 uM by LC-MS/MS analysis; format: ADME, Microsome
[2] = system: Human immunodeficiency virus 1; assay: Antiviral activity against HIV1 wild type subtype C NL (4 to 3) transfected in human HEK293T cells by dual-luciferase reporter assay; format: functional, organism-based; conditions: Human immunodeficiency virus 1, HEK-293T
[3] = system: Human immunodeficiency virus 1; assay: Antiviral activity against HIV1 NL (4 to 3) harbouring V362I/deltaV370 mutant transfected in human HEK293T cells by dual-luciferase reporter assay; format: functional, organism-based; conditions: Human immunodeficiency virus 1, HEK-293T
[4] = Drug concentration in overnight fasted cynomolgus monkey plasma at 2 mg/kg, po or 1 mg/kg, iv measured after 24 hrs; format: ADME, organism-based, Macaca fascicularis
[5] = Binding affinity to HIV1 wild type Gag assessed as dissociation constant; design: species or system Human immunodeficiency virus 1
[6] = system: Human immunodeficiency virus 1; assay: Antiviral activity against HIV1 wild type NL (4 to 3) infected in human MT2 cells measured after 4 to 5 days in presence of human serum by dual-luciferase reporter assay; format: functional, organism-based; conditions: mt2
[7] = Cmax in overnight fasted Beagle dog at 2 mg/kg, po or 1 mg/kg, iv; format: ADME, organism-based, Canis lupus familiaris; design: dose 2 mg/kg, route po; conditions: in vivo
[8] = Half life in overnight fasted Beagle dog at 1 mg/kg, iv; format: ADME, organism-based, Canis lupus familiaris; conditions: in vivo
[9] = AUC(0 to t) in overnight fasted Sprague-Dawley rat at 5 mg/kg, po or 1 mg/kg, iv; format: ADME, organism-based; design: dose 5 mg/kg, route po; conditions: in vivo
[10] = Oral bioavailability in overnight fasted mouse using spray-dried dispersion at 5 mg/kg; format: ADME, organism-based; conditions: in vivo
[11] = target: T1, UDP-glucuronosyltransferase 1A1 (Homo sapiens, UniProt P22309); assay: Inhibition of UGT1A1(unknown origin)
T1 sequence (P22309 whole entry): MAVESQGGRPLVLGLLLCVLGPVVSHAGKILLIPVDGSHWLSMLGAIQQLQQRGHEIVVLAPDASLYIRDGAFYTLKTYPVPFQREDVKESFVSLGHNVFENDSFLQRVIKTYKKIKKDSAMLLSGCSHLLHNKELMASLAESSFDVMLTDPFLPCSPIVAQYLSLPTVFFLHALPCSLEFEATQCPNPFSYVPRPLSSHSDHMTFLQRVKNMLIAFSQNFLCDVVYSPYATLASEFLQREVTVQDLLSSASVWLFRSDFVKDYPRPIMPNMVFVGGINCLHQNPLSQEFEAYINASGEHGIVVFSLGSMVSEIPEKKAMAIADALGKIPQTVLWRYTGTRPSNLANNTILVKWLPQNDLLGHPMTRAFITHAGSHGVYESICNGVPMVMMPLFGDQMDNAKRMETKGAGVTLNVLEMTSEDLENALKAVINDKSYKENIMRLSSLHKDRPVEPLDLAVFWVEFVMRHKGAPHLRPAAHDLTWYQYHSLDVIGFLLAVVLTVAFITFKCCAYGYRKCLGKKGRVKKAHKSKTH

[12] = Volume of distribution at steady state in overnight fasted Sprague-Dawley rat at 5 mg/kg, po or 1 mg/kg, iv; format: ADME, organism-based; conditions: in vivo
[13] = target: Cytochrome P450 2D6 (Homo sapiens, UniProt P10635); assay: Inhibition of CYP2D6 (unknown origin); format: ADME
Sequence of Cytochrome P450 2D6 (P10635 whole entry): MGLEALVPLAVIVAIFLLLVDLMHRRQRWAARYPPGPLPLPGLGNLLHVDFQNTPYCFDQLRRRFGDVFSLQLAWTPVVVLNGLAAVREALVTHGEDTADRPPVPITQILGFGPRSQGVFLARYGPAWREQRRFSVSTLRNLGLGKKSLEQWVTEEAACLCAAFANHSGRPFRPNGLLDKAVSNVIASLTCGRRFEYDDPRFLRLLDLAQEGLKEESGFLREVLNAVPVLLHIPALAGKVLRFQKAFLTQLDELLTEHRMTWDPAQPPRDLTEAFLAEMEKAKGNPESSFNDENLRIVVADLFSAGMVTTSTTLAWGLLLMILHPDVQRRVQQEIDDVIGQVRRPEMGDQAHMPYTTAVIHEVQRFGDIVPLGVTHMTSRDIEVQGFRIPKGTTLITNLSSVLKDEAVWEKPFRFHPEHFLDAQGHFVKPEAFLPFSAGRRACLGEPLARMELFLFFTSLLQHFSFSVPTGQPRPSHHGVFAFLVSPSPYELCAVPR

[14] = system: Human immunodeficiency virus 1; assay: Antiviral activity against HIV1 virus harboring NL (4 to 3) harbouring […]/V370A mutant transfected in human HEK293T cells by luciferase reporter assay; format: functional, organism-based; conditions: Human immunodeficiency virus 1, HEK-293T
[15] = target: Cytochrome P450 3A4 (Homo sapiens, UniProt P08684); assay: Inhibition of CYP3A4 (unknown origin); format: ADME
Sequence of Cytochrome P450 3A4 (P08684 whole entry): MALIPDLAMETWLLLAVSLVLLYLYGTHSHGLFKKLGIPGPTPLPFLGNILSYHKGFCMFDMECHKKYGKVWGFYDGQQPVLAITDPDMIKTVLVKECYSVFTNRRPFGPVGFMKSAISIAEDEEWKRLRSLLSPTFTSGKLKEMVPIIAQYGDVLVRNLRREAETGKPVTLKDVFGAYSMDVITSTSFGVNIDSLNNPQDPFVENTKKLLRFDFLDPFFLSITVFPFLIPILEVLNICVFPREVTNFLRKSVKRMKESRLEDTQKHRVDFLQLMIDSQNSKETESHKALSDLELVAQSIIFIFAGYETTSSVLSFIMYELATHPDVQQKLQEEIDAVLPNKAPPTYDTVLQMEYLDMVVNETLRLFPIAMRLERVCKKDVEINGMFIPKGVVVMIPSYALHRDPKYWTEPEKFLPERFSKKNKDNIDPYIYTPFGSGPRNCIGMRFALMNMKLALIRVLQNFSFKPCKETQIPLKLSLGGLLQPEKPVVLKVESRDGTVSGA

[16] = target: T2, Cytochrome P450 2B6 (Homo sapiens, UniProt P20813); assay: Inhibition of CYP2B6 (unknown origin); format: ADME
T2 sequence (P20813 whole entry): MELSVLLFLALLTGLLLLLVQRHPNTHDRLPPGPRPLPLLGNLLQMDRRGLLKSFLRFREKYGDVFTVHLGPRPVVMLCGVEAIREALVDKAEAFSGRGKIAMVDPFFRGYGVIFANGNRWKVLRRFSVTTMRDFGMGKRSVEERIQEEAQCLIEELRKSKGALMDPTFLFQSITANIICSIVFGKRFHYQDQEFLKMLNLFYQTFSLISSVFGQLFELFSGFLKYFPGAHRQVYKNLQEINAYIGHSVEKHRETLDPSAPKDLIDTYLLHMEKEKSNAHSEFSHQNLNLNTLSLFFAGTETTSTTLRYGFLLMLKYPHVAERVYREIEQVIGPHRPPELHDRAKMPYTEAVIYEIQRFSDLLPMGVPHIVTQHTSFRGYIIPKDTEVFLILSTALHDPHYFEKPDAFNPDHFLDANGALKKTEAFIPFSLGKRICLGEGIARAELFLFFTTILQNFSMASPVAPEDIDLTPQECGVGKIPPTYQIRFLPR

[17] = AUC(0 to t) in overnight fasted cynomolgus monkey at 2 mg/kg, po or 1 mg/kg, iv; format: ADME, organism-based, Macaca fascicularis; design: dose 2 mg/kg, route po; conditions: in vivo
[18] = Metabolic stability in mouse liver microsomes assessed as half life in presence of NADPH at 0.5 uM by LC-MS/MS analysis; format: ADME, Microsome
[19] = Half life in overnight fasted mouse at 1 mg/kg, iv; format: ADME, organism-based; conditions: in vivo
[20] = Half life in overnight fasted Sprague-Dawley rat at 1 mg/kg, iv; format: ADME, organism-based; conditions: in vivo
[21] = AUC in rat at 5 mg/kg, po; format: ADME, organism-based; design: dose 5 mg/kg, route po; conditions: in vivo
[22] = target: Cytochrome P450 2C19 (Homo sapiens, UniProt P33261); assay: Inhibition of CYP2C19 (unknown origin); format: ADME
Sequence of Cytochrome P450 2C19 (P33261 whole entry): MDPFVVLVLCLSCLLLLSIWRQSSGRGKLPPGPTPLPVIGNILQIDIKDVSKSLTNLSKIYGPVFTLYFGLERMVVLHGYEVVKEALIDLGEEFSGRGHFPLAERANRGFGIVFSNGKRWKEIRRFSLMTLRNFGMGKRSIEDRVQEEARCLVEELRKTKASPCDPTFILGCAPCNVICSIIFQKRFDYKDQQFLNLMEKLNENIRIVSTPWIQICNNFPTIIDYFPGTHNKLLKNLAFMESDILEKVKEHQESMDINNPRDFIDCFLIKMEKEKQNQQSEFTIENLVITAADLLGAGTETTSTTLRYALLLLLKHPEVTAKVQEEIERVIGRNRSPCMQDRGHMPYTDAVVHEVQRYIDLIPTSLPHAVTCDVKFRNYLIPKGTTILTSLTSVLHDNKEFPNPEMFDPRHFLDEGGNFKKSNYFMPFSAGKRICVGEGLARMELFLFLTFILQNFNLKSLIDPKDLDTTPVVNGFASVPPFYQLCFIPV

[23] = Cmax in overnight fasted cynomolgus monkey at 2 mg/kg, po or 1 mg/kg, iv; format: ADME, organism-based, Macaca fascicularis; design: dose 2 mg/kg, route po; conditions: in vivo
[24] = Metabolic stability in human liver microsomes assessed as half life in presence of NADPH at 0.5 uM by LC-MS/MS analysis; format: ADME, Microsome
[25] = Metabolic stability in cynomolgus monkey liver microsomes assessed as half life in presence of NADPH at 0.5 uM by LC-MS/MS analysis; format: ADME, Macaca fascicularis, Microsome
[26] = Volume of distribution at steady state in overnight fasted Beagle dog at 2 mg/kg, po or 1 mg/kg, iv; format: ADME, organism-based, Canis lupus familiaris; conditions: in vivo
[27] = target: Cytochrome P450 2C9 (Homo sapiens, UniProt P11712); assay: Inhibition of CYP2C9 (unknown origin); format: ADME
Sequence of Cytochrome P450 2C9 (P11712 whole entry): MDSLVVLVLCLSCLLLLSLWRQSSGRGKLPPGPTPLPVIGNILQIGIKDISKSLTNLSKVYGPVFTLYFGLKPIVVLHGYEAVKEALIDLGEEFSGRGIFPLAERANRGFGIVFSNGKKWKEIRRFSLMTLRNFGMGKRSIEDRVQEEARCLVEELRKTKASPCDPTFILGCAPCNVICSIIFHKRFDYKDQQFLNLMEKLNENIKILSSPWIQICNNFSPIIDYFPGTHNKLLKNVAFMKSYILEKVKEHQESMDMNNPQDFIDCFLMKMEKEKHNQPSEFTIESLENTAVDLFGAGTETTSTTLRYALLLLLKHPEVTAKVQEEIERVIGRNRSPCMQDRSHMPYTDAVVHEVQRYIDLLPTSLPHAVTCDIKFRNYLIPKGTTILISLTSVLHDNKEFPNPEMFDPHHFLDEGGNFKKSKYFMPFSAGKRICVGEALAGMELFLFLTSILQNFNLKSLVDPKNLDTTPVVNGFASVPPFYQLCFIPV

C=C(C)[C@@H]1CC[C@]2(NCCN3CCS(=O)(=O)CC3)CC[C@]3(C)[C@H](CC[C@@H]4[C@@]5(C)CC=C(C6=CC[C@@](CF)(C(=O)O)CC6)C(C)(C)[C@@H]5CC[C@]43C)[C@@H]12 [FIPRAVIRIMAT]
half-life at 0.5 µM [1]: 90 min
pEC50 [2]: 8.92
pEC50 [3]: 8.52
concentration at 24 h [4]: 68 nM
pKd [5]: 8.85
pEC50 [6]: 7.86
Cmax [7]: 4.3 µM
half-life [8]: 1120 min
AUC(0-t) [9]: 7.4 µM·h
bioavailability [10]: 91%
pIC50 [11]: 5.41
Vdss [12]: 1.8 L/kg
pIC50 [13]: < 4.88
pEC50 [14]: < 5.52
pIC50 [15]: < 4.88
pIC50 [16]: < 4.88
AUC(0-t) [17]: 7.6 µM·h
half-life at 0.5 µM [18]: > 120 min
half-life [19]: 276 min
half-life [20]: 240 min
AUC [21]: 7.368 µM·h
pIC50 [22]: < 4.88
Cmax [23]: 800 nM
half-life at 0.5 µM [24]: > 120 min
half-life at 0.5 µM [25]: 28 min
Vdss [26]: 0.49 L/kg
pIC50 [27]: < 4.88
